Data from patent US8692014B2, “Acid addition salts of 5-aminolevulinic acid or its derivatives” (Photocure ASA, priority 2004, dated 2014).

Experiments:
[1] = Hygroscopicity: water uptake and onset of deliquescence in closed chamber at 75-84% relative humidity; type: physicochemical; settings: 75-84% relative humidity over saturated ammonium sulfate solution, ca. 25° C.; for appearance / deliquescence during the test period / water uptake as monitored by weight: in words
Protocol: Samples of methyl 5-amino-4-oxopentanoate hydrochloride, methanesulfonate, and toluenesulfonate were weighed and kept in 30 ml plastic cups in a closed chamber at 75-84% relative humidity over saturated ammonium sulfate solution at ambient temperature (ca. 25° C.). The samples were then weighed after different intervals of time to monitor water uptake. The appearance of the samples was also checked at the same time to determine the onset of deliquescence.
Samples of 5-amino-4-oxopentanoic acid hydrochloride and toluenesulfonate were weighed and kept in 30 ml plastic cups in a closed chamber at 75-84 relative humidity over saturated ammonium sulfate solution at ambient temperature (ca. 25° C.). The samples were then weighed after different intervals of time to monitor water uptake. The appearance of the samples was also checked at the same time to determine the onset of deliquescence.
Samples of hexyl 5-amino-4-oxopentanoate hydrochloride and toluenesulfonate were weighed and kept in 30 ml plastic cups in a closed chamber at 75-84% relative humidity over saturated ammonium sulfate solution at ambient temperature (ca. 25° C.). The samples were then weighed after different intervals of time to monitor water uptake. The appearance of the samples was also checked at the same time to determine the onset of deliquescence.

mouse skin [2] = assay: Skin fluorescence after topical application of cream formulations to nude mice (emission 550-750 nm); type: in vivo, Female Balb/c athymic nude mice; settings: in words; for initial fluorescence build-up compared with the hydrochloride salt / occurrence of maximum fluorescence compared with the hydrochloride salt / skin fluorescence compared to the hydrochloride salt: topical cream 0.5 mmol/10 g; for initial fluorescence build-up compared with the hydrochloride salt / occurrence of maximum fluorescence compared with the hydrochloride salt: FIG. 2; for skin fluorescence compared to the hydrochloride salt: FIG. 3 and FIG. 4
Protocol: Different salts of 5-amino-4-oxopentanoic acid or of its esters were formulated in Unguentum Merck for dermal studies. All cream formulations contained 0.5 mmol of substance per 10 g cream to ensure the same molar concentration (assuming that 10 g cream equals 10 ml, the approx. molar concentration is 0.5 mmol/10 ml or 50 mM). Preparation of the formulations is outlined in Table 1 below.
(§1) Method: Female Balb/c athymic nude mice, weighing about 22 g, obtained from the Department of Laboratory Animals, The Norwegian Radium Hospital, Oslo, Norway, were used in the study. Each group consisted of three mice.
(§2) Each mouse received 0.05-0.1 g of formulation (see Example 31) topically applied at the right flank of the body, evenly distributed and covered with a dressing (Opsite Flexigrid; Smith and Nephew Medical Ltd., Hull, England).
(§3) The fiber point measuring device used consisted of a bundle of optical fibers connected to a spectrofluorimeter which produced the excitation light of 407 nm. The excitation light, which is capable of penetrating 0.1-0.5 mm into the tissue, was led through half of the fibers to the mouse skin. The resulting emission fluorescence spectrum (550-750) nm was collected and led through the remaining fibers into a photomultiplier for quantification. The fluorescence spectrum from the skin was measured at 0, 2, 4, 6, 8, 10, 12 and 24 hours after administration and plotted against time.

mouse skin [3] = assay: Skin fluorescence after topical application of cream formulations to nude mice, measured at 636 nm; type: in vivo, Female Balb/c athymic nude mice; settings: topical cream 0.5 mmol/10 g, fluorescence at 636 nm, in words; for induction of skin fluorescence compared with the hydrochloride salt: FIG. 6 and FIG. 7; for occurrence of maximum fluorescence compared with the hydrochloride salt: FIG. 7
From the text: as §1, §2, §3
Different salts of 5-amino-4-oxopentanoic acid or of its benzylester were formulated in Unguentum Merck for dermal studies. All cream formulations contained 0.5 mmol substance per 10 g cream to assure the same molar concentration. Corrections were made in the case of the 2:1 salts so that the molar concentration of 5-amino-4-oxopentanoic acid or the corresponding ester corresponded to 0.5 mmol/10 g cream. Assuming that 10 g cream equals 10 ml, the approx. molar concentration is 0.5 mmol/10 ml=50 mM. Preparation of the formulations is outlined in Table 2 below.
Preparation of the Formulations is Described in Example 36. The same experimental system as in Example 32 was used, except that the skin fluorescence was measured at 636 nm rather than at 550-750 nm.
Preparation of the Formulations is Described in Example 36. The same experimental system as in Example 37 was used.

[4] = Hygroscopicity: 2 mg samples kept at ambient temperature at ambient or 100 humidity; type: physicochemical; settings: for deliquescence on storage: ambient temperature and 100 humidity; for change of sample on storage: ambient temperature and ambient humidity for 4 days
Protocol: Samples (2 mg) of the hydrochloride, methanesulfonate, and toluenesulfonate of hexyl 5-amino-4-oxopentanoate were kept at ambient temperature and ambient humidity for 4 days.
Samples (2 mg) of the hydrochloride, methanesulfonate, and toluenesulfonate of hexyl 5-amino-4-oxopentanoate were kept at ambient temperature and 100 humidity.

## 5-Amino-4-oxopentanoic acid toluenesulfonate
[1]
  appearance / deliquescence during the test period: did not change appearance during the test period
  water uptake as monitored by weight: did not pick up water

## Cl.NCC(=O)CCC(=O)O [5-amino-4-oxopentanoic acid hydrochloride, reference compound]
[1]
  onset of deliquescence: 22.5 h
  water uptake as monitored by weight: took up water to a considerable extent

## CS(=O)(=O)O.NCC(=O)CCC(=O)O [5-amino-4-oxopentanoic acid methanesulfonate]
Mouse skin [2]; topical cream 0.5 mmol/10 g (Unguentum Merck), excitation 407 nm, emission 550-750 nm, 0-24 h, FIG. 1
  maximal skin fluorescence compared with the HCl salt: somewhat higher maximal skin fluorescence than the HCl salt

## CS(=O)(=O)O.NCC(=O)CCC(=O)OCc1ccccc1 [Benzyl 5-amino-4-oxopentanoate methanesulfonate]
Mouse skin [2]
  initial fluorescence build-up compared with the hydrochloride salt: occurred faster
  occurrence of maximum fluorescence compared with the hydrochloride salt: occurred faster

## COC(=O)CCC(=O)CN.CS(=O)(=O)O [Methyl 5-amino-4-oxopentanoate methanesulfonate]
[1]
  onset of deliquescence: 22 h
  water uptake as monitored by weight: took up water to a considerable extent
Mouse skin [2]; emission 550-750 nm
  skin fluorescence compared to the hydrochloride salt: a considerable increase in skin fluorescence as compared to the hydrochloride salt

## NCC(=O)CCC(=O)OCc1ccccc1.O=[N+]([O-])O [benzyl 5-amino-4-oxopentanoate nitrate, Benzyl 5-amino-4-oxopentanoate nitrate]
Mouse skin [3]
  induction of skin fluorescence compared with the hydrochloride salt: more effective in inducing skin fluorescence than the hydrochloride salt

## NCC(=O)CCC(=O)OCc1ccccc1.O=P(O)(O)O [benzyl 5-amino-4-oxopentanoate phosphate, Benzyl 5-amino-4-oxopentanoate phosphate]
Mouse skin [3]
  induction of skin fluorescence compared with the hydrochloride salt: poorer inducers of skin fluorescence than the corresponding hydrochloride salt
  occurrence of maximum fluorescence compared with the hydrochloride salt: occurred earlier

## CCCCCCOC(=O)CCC(=O)CN.Cl [hexyl 5-amino-4-oxopentanoate hydrochloride, reference compound]
[4]
  deliquescence on storage: deliquesced after standing overnight
  change of sample on storage: No observable change
[1]
  onset of deliquescence: 5.0 h
  water uptake as monitored by weight: did not pick up water to a considerable extent

## CCCCCCOC(=O)CCC(=O)CN.CS(=O)(=O)O [hexyl 5-amino-4-oxopentanoate methanesulfonate]
[4]
  deliquescence on storage: deliquesced after two days
  change of sample on storage: No observable change
[1]
  appearance / deliquescence during the test period: deliquescence did not occur
  water uptake as monitored by weight: took up water to some extent
Mouse skin [2]; emission 550-750 nm
  skin fluorescence compared to the hydrochloride salt: approx. the same skin fluorescence as the hydrochloride salt

## COC(=O)CCC(=O)CN.Cl [methyl 5-amino-4-oxopentanoate hydrochloride, reference compound]
[1]
  onset of deliquescence: 22 h
  water uptake as monitored by weight: took up water to a considerable extent

## Benzyl 5-amino-4-oxopentanoate sulfate (2:1)
Mouse skin [3]
  induction of skin fluorescence compared with the hydrochloride salt: poorer inducers of skin fluorescence than the corresponding hydrochloride salt
  occurrence of maximum fluorescence compared with the hydrochloride salt: occurred earlier

## Benzyl 5-amino-4-oxopentanoate toluenesulfonate
Mouse skin [2]
  initial fluorescence build-up compared with the hydrochloride salt: occurred faster
  occurrence of maximum fluorescence compared with the hydrochloride salt: occurred faster

## Methyl 5-amino-4-oxopentanoate toluenesulfonate
[1]
  appearance / deliquescence during the test period: did not change appearance during the test period
  water uptake as monitored by weight: did not pick up water

## hexyl 5-amino-4-oxopentanoate toluenesulfonate
[4]
  deliquescence on storage: deliquesced after four days
  change of sample on storage: No observable change
[1]
  appearance / deliquescence during the test period: did not change appearance during the test period
  water uptake as monitored by weight: did not pick up water
Mouse skin [2]; emission 550-750 nm
  skin fluorescence compared to the hydrochloride salt: approx. the same skin fluorescence as the hydrochloride salt
